We go through 1 molecule from patent US20260069621A1, “Pentagalloyl glucose (PGG) for use in treatment of pulmonary hypertension” (Charité - Universitaetsmedizin Berlin, priority 2021, published 2026).

Series [1] relates to human PAs. The experiment in a line: Ex vivo culture of human PAs with or without elastase, EVG staining of elastic fibers. Here is the method: Effects of PGG on PA biomechanics. The effect of PGG on PA biomechanical properties was assessed by ex vivo culture of PA specimens followed by uniaxial tensile testing. Freshly isolated PAs were handled under sterile conditions. One piece of the artery was excised and directly underwent uniaxial tensile testing to record PA biomechanics at baseline. The rest of the PA was prepared as 2×8-mm strips and placed in a 12-well plate for ex vivo culture in serum-free Dulbecco's modified Eagle's medium (DMEM, Gibco) supplied with penicillin-streptomycin (Thermo Fisher) at 37° C. with controlled humidity at 21% O2 and 5% CO2. PGG (penta-O-galloyl-β-D-glucose hydrate, Sigma-Aldrich) was dissolved in dimethyl sulfoxide (DMSO, Sigma-Aldrich) as a stock solution and added to the medium at a final concentration of 0.1%. […] The following four treatment conditions were tested: control, elastase only, PGG only and PGG prior to elastase. PGG treatment was performed for 1 h at 37° C. prior to culturing PAs for 24 h in the presence or absence of elastase. Control samples were incubated with the corresponding concentrations of DMSO. Histology. Human or rat PA samples were cryo-embedded in OCT Compound (Tissue-Tek) and sliced into 10 μm transverse sections on a Microm HM560 cryostat. […] EVG staining was quantified based on positively stained area on single-plane images using Fiji-ImageJ.

The test system of series [2] is human PAs. The experiment in a line: Ex vivo culture of human PAs followed by uniaxial tensile test. The conditions noted are these: 0.1% PGG. Here is the method: Uniaxial tensile test. Following harvesting, human PA samples were kept in normal saline on ice and assessed for biomechanics within 2-4 h. […] Loose connective and adipose tissue were carefully removed, and sample dimensions (length and width) were measured using a digital caliper. The circumferential tensile properties of PAs were assessed using a MyoDynamics Muscle Strip Myograph System (840DM, Danish Myo Technology, Hinnerup, Denmark) with controlled temperature (37° C.) and aeration. To this end, circumferential rectangular sections (2×8 mm) were excised from the pulmonary trunk and mounted at 5 mm length. […] From force-displacement curves, the following parameters were derived: stiffness of elastin (k1)- and collagen (k2)-enriched arterial material (calculated as the slopes of the toe- and linear regions, respectively), with stiffness (k, mN/mm) reflecting the resistance to deformation (ΔF/ΔL) generated by the respective material, and the strain at which the transition of load-bearing elements from elastin to collagen occurred (εTrans), defined based on force-displacement curve characteristics as the strain applied when F reached 100 mN.
Effects of PGG on PA biomechanics. The effect of PGG on PA biomechanical properties was assessed by ex vivo culture of PA specimens followed by uniaxial tensile testing. […]

The conditions of series [3]: concentrations similar to 0.1%; cited from earlier work.
For a further series, the system named is rat AAA model. The conditions noted are these: local application; cited from earlier work.

Turning to `O=C(OC[C@H]1O[C@@H](OC(=O)c2cc(O)c(O)c(O)c2)[C@H](OC(=O)c2cc(O)c(O)c(O)c2)[C@@H](OC(=O)c2cc(O)c(O)c(O)c2)[C@@H]1OC(=O)c1cc(O)c(O)c(O)c1)c1cc(O)c(O)c(O)c1` [PGG, 1,2,3,4,6-Penta-O-galloyl-β-D-glucose], the “Elastic fibers (EVG staining) after elastase treatment” value in the series with human PAs [1] (0.1% PGG, 1 U porcine elastase for 24 h) is reported as “partially preserved”. The Elastin content entry in the series on human PAs [1] (naïve PAs and PAs treated with elastase) is listed as “increased elastin content”. Also, in the series on human PAs [2] (elastase-treated PAs), the “εTrans in uniaxial tensile tests” value is “increased”. Moreover, the “Load borne by elastic fibers” value in the series on human PAs [2] (naïve PAs) is reported as “increased the load borne by elastic fibers”. Moreover, the Cytotoxicity result in series [3] is “minimal cytotoxicity”. Moreover, in the series with rat AAA model, the Aneurysmal expansion entry is recorded as “reduce” and the Elastic fiber degeneration result is listed as “effectively decrease”.
